Reference: PMC4047469 (Molecular & Cellular Proteomics : MCP, 2014)

Key:
DDR2 = molecular target: T1, DDR2 (Homo sapiens, UniProt Q16832); experiment: autophosphorylation immunoblot; type: cell-based; details: 293T cells, collagen I 20 μg/ml, 120 min; E-3810 2, 8, 32 μM
T1 sequence (Q16832 22-855): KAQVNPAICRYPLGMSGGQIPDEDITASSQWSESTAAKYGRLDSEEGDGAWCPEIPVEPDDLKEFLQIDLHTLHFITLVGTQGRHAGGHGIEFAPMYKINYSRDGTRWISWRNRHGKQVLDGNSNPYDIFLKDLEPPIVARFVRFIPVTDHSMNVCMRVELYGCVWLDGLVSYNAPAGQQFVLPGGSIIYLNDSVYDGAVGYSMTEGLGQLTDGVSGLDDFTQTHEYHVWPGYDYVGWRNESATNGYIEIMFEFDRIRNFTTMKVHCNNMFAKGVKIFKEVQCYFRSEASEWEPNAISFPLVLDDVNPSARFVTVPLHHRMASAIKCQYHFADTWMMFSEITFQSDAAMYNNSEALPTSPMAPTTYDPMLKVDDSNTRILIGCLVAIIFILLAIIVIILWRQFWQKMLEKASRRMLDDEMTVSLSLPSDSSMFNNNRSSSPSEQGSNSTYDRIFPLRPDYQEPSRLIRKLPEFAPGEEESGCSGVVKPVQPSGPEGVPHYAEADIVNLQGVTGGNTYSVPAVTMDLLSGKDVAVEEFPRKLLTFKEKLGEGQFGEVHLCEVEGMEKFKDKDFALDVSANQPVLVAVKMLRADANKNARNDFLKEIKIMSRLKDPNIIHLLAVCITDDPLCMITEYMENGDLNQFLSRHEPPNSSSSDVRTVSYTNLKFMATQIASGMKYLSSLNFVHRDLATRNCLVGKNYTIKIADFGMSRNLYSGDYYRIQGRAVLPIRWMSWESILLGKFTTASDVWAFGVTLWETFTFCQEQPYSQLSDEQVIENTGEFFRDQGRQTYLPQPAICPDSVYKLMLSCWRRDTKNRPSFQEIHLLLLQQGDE

FGFR2 = FGFR2 (Homo sapiens, UniProt P21802); experiment: in vitro kinase assay; type: biochemical
Sequence of FGFR2 (P21802 22-821): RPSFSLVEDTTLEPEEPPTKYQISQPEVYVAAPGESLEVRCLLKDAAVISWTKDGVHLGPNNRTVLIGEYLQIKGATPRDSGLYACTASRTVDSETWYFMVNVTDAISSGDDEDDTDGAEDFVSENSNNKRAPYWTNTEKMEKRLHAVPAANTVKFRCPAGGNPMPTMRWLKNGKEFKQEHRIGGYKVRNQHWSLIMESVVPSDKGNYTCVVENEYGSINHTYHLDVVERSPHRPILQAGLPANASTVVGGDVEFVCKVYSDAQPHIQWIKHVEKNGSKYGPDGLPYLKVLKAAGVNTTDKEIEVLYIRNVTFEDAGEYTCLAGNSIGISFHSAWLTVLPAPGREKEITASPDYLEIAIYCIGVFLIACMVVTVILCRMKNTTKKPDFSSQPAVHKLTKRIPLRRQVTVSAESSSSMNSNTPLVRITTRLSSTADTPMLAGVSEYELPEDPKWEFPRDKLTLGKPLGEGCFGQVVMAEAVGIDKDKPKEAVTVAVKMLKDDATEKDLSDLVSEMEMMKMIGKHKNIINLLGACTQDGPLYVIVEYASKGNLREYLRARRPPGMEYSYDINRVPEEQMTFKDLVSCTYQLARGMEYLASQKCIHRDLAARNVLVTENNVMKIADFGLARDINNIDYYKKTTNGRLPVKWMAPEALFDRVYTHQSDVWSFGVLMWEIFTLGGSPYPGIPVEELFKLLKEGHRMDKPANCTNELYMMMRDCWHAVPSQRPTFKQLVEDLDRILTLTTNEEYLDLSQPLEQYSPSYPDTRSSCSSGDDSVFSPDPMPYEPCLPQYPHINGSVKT

SRC = SRC (Homo sapiens, UniProt P12931); experiment: radiometric filter-binding kinase assay; type: biochemical
Sequence of SRC (P12931 2-536): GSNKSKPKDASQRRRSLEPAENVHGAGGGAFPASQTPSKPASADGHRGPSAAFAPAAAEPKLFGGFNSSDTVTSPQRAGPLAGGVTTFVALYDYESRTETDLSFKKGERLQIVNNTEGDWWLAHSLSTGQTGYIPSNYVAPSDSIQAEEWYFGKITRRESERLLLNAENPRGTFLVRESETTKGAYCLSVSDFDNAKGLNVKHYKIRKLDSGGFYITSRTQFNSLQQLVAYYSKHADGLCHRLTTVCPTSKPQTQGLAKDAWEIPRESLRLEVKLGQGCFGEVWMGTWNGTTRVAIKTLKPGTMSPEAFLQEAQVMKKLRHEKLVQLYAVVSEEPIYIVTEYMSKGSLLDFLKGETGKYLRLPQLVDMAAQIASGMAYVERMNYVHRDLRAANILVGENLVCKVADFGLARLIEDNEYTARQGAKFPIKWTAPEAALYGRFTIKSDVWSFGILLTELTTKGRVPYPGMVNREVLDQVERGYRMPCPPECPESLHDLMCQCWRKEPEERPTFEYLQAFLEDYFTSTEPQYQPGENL

For `CNC(=O)c1cccc2cc(Oc3ccnc4cc(OCC5(N)CC5)c(OC)cc34)ccc12` [compound 1, E-3810], the autophosphorylation immunoblot (DDR2) was “increasing concentrations of E-3810 resulted in the reduction of DDR2 autophosphorylation”, the IC50 (FGFR2) was 0.077 µM and the Ki (SRC) was greater than 50 µM.
